This is an account of results in ChEMBL document CHEMBL4813999, “Mur ligases inhibitors with azastilbene scaffold: Expanding the structure-activity relationship” (Bioorg Med Chem Lett, 2021).

In brackets after ≈: the same amount, converted by molar mass.

A short description of assay [1]: Inhibition of MurD (unknown origin) at 100 uM relative to control.
Another assay concerns Staphylococcus aureus. As to the kind of experiment: Antibacterial activity against Staphylococcus aureus ATCC 29213 assessed as inhibition of bacterial growth. Format: functional.
The nature of assay [2]: Inhibition of MurE (unknown origin) at 100 uM relative to control.
The nature of assay [3]: Inhibition of MurF (Unknown origin) at 100 uM relative to control.
Another assay concerns Escherichia coli. As to the kind of experiment: Antibacterial activity against Escherichia coli ATCC 25922 assessed as inhibition of bacterial growth. Format: functional.
Assay [4] can be described thus: Inhibition of MurC (unknown origin) at 100 uM relative to control.
Assay [5] in a line: Inhibition of MurF (unknown origin).
Assay [6] can be described thus: Inhibition of MurD (unknown origin).
Assay [7] is described as follows: Inhibition of MurC (unknown origin).
The nature of assay [8]: Inhibition of MurE (unknown origin).

Turning to `COc1ccc(-c2cc(C)c(/C=C/c3cncc(-c4nnn[nH]4)c3)c(C)c2)cc1`, the inhibition in [1] was 30%; in [2], 37%; in assay [3] it was 25%; in assay [4] it was 30%. For the same compound, the minimum inhibitory concentration (MIC) with Staphylococcus aureus was 250 µM (≈ 95.9 µg/mL); with Escherichia coli it was greater than 250 µM.
Take `Cc1cc(-c2ccco2)cc(C)c1/C=C/c1cncc(C(=O)O)c1`: the inhibition came out at 70% in [1], 27% in assay [2], 47% in assay [3] and 43% in [4]. For the same compound, the MIC in the assay with Staphylococcus aureus and in the assay on Escherichia coli was greater than 250 µM throughout. In addition, the half-inhibitory concentration (IC50) is 109 µM in [5], 64 µM in [6] and 153 µM in assay [7].
Regarding `COc1cccc(-c2cc(C)c(/C=C/c3cncc(-c4nnn[nH]4)c3)c(C)c2)c1`, the inhibition in assay [1] worked out at 23%; in assay [2] it was 21%; in [3] it was 18%; in assay [4], 15%. Further, the MIC in the assay on Staphylococcus aureus and in the assay with Escherichia coli was greater than 250 µM in each case.
With `Cc1cc(N2CCCCC2=O)cc(C)c1/C=C/c1cncc(-c2nnn[nH]2)c1`, the inhibition stood at 14% in assay [1], 30% in [2], 38% in assay [3] and 15% in assay [4]. Further, the minimum inhibitory concentration (MIC) in the assay with Staphylococcus aureus and in the assay on Escherichia coli was greater than 250 µM each time.
As to `Cc1cc(-c2ccco2)cc(C)c1/C=C/c1cncc(C2=NCCO2)c1`, the inhibition in [1] came to 45%; in assay [2], 32%; in assay [3], 44%; in assay [4] it was 44%. The minimal inhibitory concentration (MIC) in the assay on Staphylococcus aureus was 125 µM (≈ 43.1 µg/mL); in the assay with Escherichia coli, greater than 250 µM. The IC50 in assay [5] is 144 µM; in assay [6], 126 µM; in [7], 153 µM.
As to `Cc1cc(-c2ccco2)cc(C)c1/C=C/c1cncc(C2=NCCS2)c1`, the inhibition is 70% in [1], 46% in [2], 58% in assay [3] and 56% in assay [4]. Further, the MIC in the assay on Staphylococcus aureus and with Escherichia coli was greater than 250 µM in each case. Also, the IC50 in assay [8] stood at 150 µM; in [5] it was 71 µM; in assay [6], 85 µM; in [7], 82 µM.
For `Cc1cc(-c2ccco2)cc(C)c1/C=C/c1cc(-c2nnn[nH]2)ccn1`, the inhibition in [1] is 73%; in assay [2] it was 55%; in [3], 84%; in assay [4] it was 23%. For the same compound, the minimal inhibitory concentration (MIC) in the assay on Staphylococcus aureus and with Escherichia coli was greater than 250 µM throughout. The 50% inhibitory concentration (IC50) in assay [8] is 97 µM; in assay [5] it was 17 µM; in assay [6], 56 µM.
Turning to `Cc1cc(-c2ccco2)cc(C)c1/C=C/c1cncc(C#N)c1`, the inhibition in assay [1] came out at 27%; in assay [2], 35%; in assay [3] it was 21%; in assay [4], 22%. Also, the MIC in the assay on Staphylococcus aureus and in the assay with Escherichia coli was greater than 250 µM each time.
Regarding `Cc1cc(-c2ccoc2)cc(C)c1/C=C/c1cncc(-c2nnn[nH]2)c1`, the inhibition in assay [1] turned out to be 22%; in assay [2], 18%; in [3], 12%; in [4], 16%. Also, the MIC in the assay on Staphylococcus aureus and in the assay with Escherichia coli was greater than 250 µM throughout.
Regarding `Cc1cc(-c2cccc(C(=O)O)c2)cc(C)c1/C=C/c1cncc(-c2nnn[nH]2)c1`, the inhibition worked out at 26% in assay [1], 39% in assay [2], 18% in [3] and 33% in assay [4]. In addition, the minimal inhibitory concentration (MIC) in the assay on Staphylococcus aureus and in the assay with Escherichia coli was greater than 250 µM in each case.
With `Cc1cc(-c2ccncc2)cc(C)c1/C=C/c1cncc(-c2nnn[nH]2)c1`, the inhibition in assay [1] came to 9%; in [2] it was 19%; in [3], 15%; in assay [4] it was 14%. Moreover, the MIC in the assay on Staphylococcus aureus and with Escherichia coli was greater than 250 µM each time.
As for `COc1ccccc1-c1cc(C)c(/C=C/c2cncc(-c3nnn[nH]3)c2)c(C)c1`, the inhibition in assay [1] came out at 42%; in [2], 33%; in assay [3] it was 0%; in [4], 35%. Besides, the MIC in the assay with Staphylococcus aureus is 125 µM (≈ 47.9 µg/mL); with Escherichia coli, greater than 250 µM. In addition, in assay [6], the IC50 worked out at 104 µM.
Turning to `Cc1cc(N2CCCC2)cc(C)c1/C=C/c1cncc(-c2nnn[nH]2)c1`, the inhibition in [1] is 1%; in assay [2], 16%; in assay [3], 29%; in [4], 22%. Besides, the values for the MIC in the assay with Staphylococcus aureus and in the assay with Escherichia coli were 250 µM (≈ 86.6 µg/mL) and greater than 250 µM, respectively.
Turning to `Cc1cc(-c2ccco2)cc(C)c1/C=C/c1cncc(-c2nn[nH]n2)c1`, the inhibition is 55% in assay [1], 51% in assay [2], 74% in assay [3] and 30% in assay [4]. Also, the minimal inhibitory concentration (MIC) in the assay on Staphylococcus aureus and with Escherichia coli was greater than 250 µM each time. For the same compound, the IC50 in assay [8] was found to be 79 µM; in assay [5], 59 µM; in assay [6], 104 µM.
Consider `COC(=O)c1cccc(-c2cc(C)c(/C=C/c3cncc(-c4nnn[nH]4)c3)c(C)c2)c1`, for which the inhibition in [1] came to 16%; in assay [2], 23%; in [3] it was 16%; in [4], 15%. In addition, the minimum inhibitory concentration (MIC) in the assay on Staphylococcus aureus and in the assay on Escherichia coli was greater than 250 µM each time.
On to `Cc1cc(-c2cccnc2)cc(C)c1/C=C/c1cncc(-c2nn[nH]n2)c1`, for which the inhibition came to 10% in [1], 4% in [2], 0% in assay [3] and 10% in [4]. In addition, the minimal inhibitory concentration (MIC) in the assay on Staphylococcus aureus and in the assay with Escherichia coli was greater than 250 µM each time.
For `Cc1cc(-c2cccc(CO)c2)cc(C)c1/C=C/c1cncc(-c2nnn[nH]2)c1`, the inhibition worked out at 14% in [1], 23% in [2], 24% in assay [3] and 25% in assay [4]. Moreover, the MIC with Staphylococcus aureus and with Escherichia coli was greater than 250 µM in each case.
As to `Cc1cc(-c2ccco2)cc(C)c1/C=C/c1cccc(-c2nnn[nH]2)c1`, the inhibition worked out at 64% in assay [1], 30% in assay [2], 21% in [3] and 5% in assay [4]. The MIC in the assay on Staphylococcus aureus and in the assay with Escherichia coli was greater than 250 µM throughout. Besides, half-maximal inhibition in assay [6] (IC50) was put at 107 µM.
`Cc1cc(-c2ccco2)cc(C)c1/C=C/c1cncc(C(N)=O)c1`: the inhibition in assay [1] is 40%; in [2], 51%; in [3] it was 76%; in assay [4], 20%. Moreover, the minimum inhibitory concentration (MIC) with Staphylococcus aureus and in the assay with Escherichia coli was greater than 250 µM throughout. The results for the IC50 in [8], in assay [5] and in [6] were 156 µM, 31 µM and 168 µM, respectively.
For `Cc1cc(Br)cc(C)c1/C=C/c1cncc(-c2nnn[nH]2)c1`, the inhibition was found to be 46% in assay [1], 38% in assay [2], 32% in [3] and 30% in assay [4]. Moreover, the minimum inhibitory concentration (MIC) with Staphylococcus aureus was 250 µM (≈ 89.1 µg/mL); with Escherichia coli, greater than 250 µM. In addition, in [6], half-maximal inhibition (IC50) required 131 µM.
For the compound `Cc1cc(-c2ccco2)cc(C)c1/C=C/c1cncc(C2=NCCN2)c1`, the inhibition in assay [1] stood at 47%; in assay [2] it was 10%; in [3] it was 40%; in assay [4], 42%. Further, the minimum inhibitory concentration (MIC) in the assay on Staphylococcus aureus is 31 µM (≈ 10.6 µg/mL); with Escherichia coli, 250 µM (≈ 85.9 µg/mL). Moreover, the IC50 is 201 µM in assay [5], 160 µM in assay [6] and 151 µM in [7].

One may read the inhibition as the percentage by which the read-out fell short of the control. A word on the MIC: it is the lowest concentration found to suppress growth. One may read the IC50 as the concentration that inhibits the measured activity by half. Higher therefore signals lower potency.
